One data set concerns Cfr.568 (AmpC, clinical). The data set can be described thus: Standard BLI potentiation MIC assay. To be noted: Citrobacter, read-out: MIC of β-lactam with BLI. Format: cell-based, Citrobacter spp. As for the experimental part:
The experimental protocol was performed according to Clinical and Laboratory Standards Institute (CLSI) guidelines with modifications as described below (CLSI guidelines can be derived from the CLSI document M07-A9 published in January 2012: “Methods for Dilution Antimicrobial Susceptibility Tests for Bacteria That Grow Aerobically; Approved Standard-Ninth Edition”).
To prepare for MIC testing, frozen glycerol stocks of clinical isolates (Klebsiella pneumoniae, Eschericia coli, Enterobacter spp, Citrobacter spp, or Pseudomonas aeruginosa) were used to streak for isolated colonies on rich, non-selective, tryptic soy agar containing 5% sheep's blood (TSAB). Frozen glycerol stocks of laboratory engineered, isogenic E. coli strains, which contain cloned β-lactamase expressing plasmids were used to streak for isolated colonies on rich, selective LB agar supplemented with 25 μg/mL tetracycline to maintain the plasmid. All strains were incubated at 37° C. for 18-24 hrs. […]
Plates were incubated for 18-20 hours at 37° C. with aeration (200 rpm). Following incubation, growth was confirmed visually placing plates over a viewing apparatus (stand with a mirror underneath) and then OD600 was measured using a SpectraMax 340PC384 plate reader (Molecular Devices, Sunnyvale, Calif.). Growth was defined as turbidity that could be detected with the naked eye or achieving minimum OD600 of 0.1. […]

Data set [1] can be described thus: Solid form stability at ambient conditions, XRPD. Format: physicochemical. As for the experimental part:
X-Ray Powder Diffraction patterns were collected on a Bruker D8 diffractometer using Cu Kα radiation (40 kV, 40 mA), 0-20 goniometer, and divergence of V4 and receiving slits, a Ge monochromator and a Lynxeye detector. The instrument is performance checked using a certified Corundum standard (NIST 1976). The software used for data collection was Diffrac Plus XRD Commander v2.6.1 and the data were analysed and presented using Diffrac Plus EVA v13.0.0.2 or v15.0.0.0. Samples were run under ambient conditions as flat plate specimens using powder as received. The sample was gently packed into a cavity cut into polished, zero-background (510) silicon wafer. The sample was rotated in its own plane during analysis. The details of the data collection are: angular range: 2 to 42 °2θ; step size: 0.05 °2θ; collection time: 0.5 s/step. Amorphous material (˜60 mg) was generated as in Procedure 1. The amorphous material was suspended in different solvent systems (3 mL) at 50° C. A sample was withdrawn after 3 h and 24 h. The final product was filtered after 48 h and analysed by XRPD. The solids isolated were re-analysed again by XRPD after few days at ambient conditions (˜25° C. and ˜40% RH).

These results are taken from patent US9120795B2, “Crystalline form of a β-lactamase inhibitor” (Cubist Pharmaceuticals, Inc., priority 2013, dated 2015).

One may read the MIC as the smallest concentration in the dilution series that meets the test's criterion for growth inhibition. As for `O=C1N2C[C@@H](CC[C@H]2c2nnco2)N1OS(=O)(=O)[O-].[Na+]` [Hydrate 1, sodium (2S,5R)-2-(1,3,4-oxadiazol-2-yl)-7-oxo-1,6-diazabicyclo[3.2.1]octan-6-yl sulfate], the MIC in the data set on Cfr.568 (AmpC, clinical) lay in the range of 1 to 2 µg/mL. Further, the “change of crystal form on storage” value in data set [1] (25° C. at 40% relative humidity over 2 days (FIG. 2)) is reported as “little to no change”. Also, the “relative stability among the crystalline forms” value in data set [1] (ambient conditions (25° C. and 40% RH)) was “most stable crystalline form”. The “stability of the form (Summary of Forms, Description)” value in data set [1] (sulfate) is on record as “Stable tri-hydrate”.
